Values of other authors, collected in PMC4629110 (Acta Pharmaceutica Sinica. B, 2014).

Tested on: BuChE
Conditions: read-out: IC50 BuChE reported in the literature

## CC(C)NP(=O)(NC(C)C)OP(=O)(NC(C)C)NC(C)C [ISO-OMPA, tetraisopropyl pyrophosphoramide]
  IC50: 980 nM
